From US8088936B2, “Leukotriene B4 inhibitors” (Hoffman-La Roche Inc., priority 2009, dated 2012)
pIC50: −log10 of the molar value.

Test system: Human leukemia HL-60 cells endogenously expressing BLT1 and BLT2 receptors
Assay: Ca2+ flux assay for LTB4 antagonist assay (HL-60 FLIPR)
Format: cell-based
Settings: retinoic acid induced HL-60 cells, inhibition of LTB4-induced Ca2+ flux, 30 min preincubation; read-out: LTB4 antagonism (HL-60 FLIPR)
Description: Assay of Compounds for Inhibition of LTB4 Activity
Ca^2+Flux Assay for LTB4 Antagonist Assay
Human leukemia HL-60 cells endogenously expressing BLT1 and BLT2 receptors were cultured in RPMI-1640 medium supplemented with 20% fetal bovine serum, 2 mM glutamine, 100 U/ml penicillin and 100 ug/ml streptomycin.
Seventy two hours prior to experiment cells are counted using ViaCount reagent, centrifuged and resuspended at 2.0×10^5 cells/ml density with the complete growth media containing 1 μM Retinoic Acid (Sigma).
On a day of the experiment loading buffer (Calcium-3 Assay Kit, Molecular Devices) was prepared by dissolving the contents of one vial (Express Kit) into 500 ml Hank's Balanced Salt Solution containing 20 mM HEPES and 5 mM probenecid. Equal volume of the loading buffer was mixed with the replacement buffer (Hank's Balanced Salt Solution containing 20 mM HEPES, 0.05% BSA and 5 mM probenecid). Retinoic Acid induced HL-60 cells were counted using ViaCount reagent, centrifuged and resuspended at 2.0×10^6 cells/ml density with the loading buffer/replacement buffer, dispensed into 384 well black/clear microplates (Falcon) (25 μl/well) and placed in a 37° C./5% CO2 incubator for 1 hour.
During the incubation, test compounds were prepared at 6× the desired concentration in HBSS/20 mM HEPES/0.05% BSA as well as LTB4 (Biomol) was prepared at 2.2× concentration in HBSS/20 mM HEPES/0.5% BSA buffer.
After the incubation, both the cell and compound plates were brought to the FLIPR and 5 μl of the diluted compounds were transferred to the cell plates by the FLIPR. Plates were then incubated for 30 min at room temperature. After the ½ hour incubation, plates were returned to the FLIPR and 25 μl of 2.2×LTB4 was added to the cell plates. During the assay, fluorescence readings were taken simultaneously from all 384 wells of the cell plate every 1.5 seconds. Five readings were taken to establish a stable baseline, then 25 μl (LTB4) of sample was rapidly and simultaneously added to each well of the cell plate. The fluorescence was continuously monitored before, during and after sample addition for a total elapsed time of 100 seconds. Responses (increase in peak fluorescence) in each well following agonist addition was determined. The initial fluorescence reading from each well, prior to ligand stimulation, was used a zero baseline value for the data from that well. The responses are expressed as % inhibition of the neutral control (neural control: wells that received buffer plus DMSO but no test compound).

Compound | pIC50
CS(=O)(=O)c1ccc(-c2cc(CO)cc(OCCCCCCc3cccc(OCCCC(=O)O)c3CCC(=O)O)c2)cc1 [Example 7, 4-[2-(2-Carboxy-ethyl)-3-[6-(5-hydroxymethyl-4′-methanesulfonyl-biphenyl-3-yloxy)-hexyl]-phenoxy]-butyric acid] | 7.08
COCc1cc(OCCCCCCc2cccc(OCCCC(=O)O)c2CCC(=O)O)cc(-c2ccc(C(F)(F)F)cc2)c1 [Example 17, 4-{2-(2-Carboxy-ethyl)-3-[6-(5-methoxymethyl-4′-trifluoromethyl-biphenyl-3-yloxy)-hexyl]-phenoxy}-butyric acid] | 8.79
COCc1cc(OCCCCCCc2cccc(OCCCC(=O)O)c2CCC(=O)O)cc(-c2ccc3c(c2)OCCO3)c1 [Example 12, 4-(2-(2-Carboxy-ethyl)-3-{6-[3-(2,3-dihydro-benzo[1,4]dioxin-6-yl)-5-methoxymethyl-phenoxy]-hexyl}-phenoxy)-butyric acid] | 8.86
O=C(O)CCCOc1cccc(CCCCCCOc2cc(CO)cc(-c3ccsc3)c2)c1CCC(=O)O [Example 3, 4-{2-(2-Carboxy-ethyl)-3-[6-(3-hydroxymethyl-5-thiophen-3-yl-phenoxy)-hexyl]-phenoxy}-butyric acid] | 7.20
N#CCc1cc(OCCCCCCc2cccc(OCCCC(=O)O)c2CCC(=O)O)cc(-c2ccccc2)c1 [Example 42, 4-{2-(2-Carboxy-ethyl)-3-[6-(5-cyanomethyl-biphenyl-3-yloxy)-hexyl]-phenoxy}-butyric acid] | 7.64
CCOc1cc(OCCCCCCc2cccc(OCCCC(=O)O)c2CCC(=O)O)cc(-c2cncnc2)c1 [Example 53, 4-[2-(2-Carboxy-ethyl)-3-[6-(3-ethoxy-5-pyrimidin-5-yl-phenoxy)-hexyl]-phenoxy]-butyric acid] | 7.10
O=C(O)CCCOc1cccc(CCCCCCOc2cc(OCc3ccccc3)cc(-c3ccsc3)c2)c1CCC(=O)O [Example 61, 4-[3-[6-(3-Benzyloxy-5-thiophen-3-yl-phenoxy)-hexyl]-2-(2-carboxy-ethyl)-phenoxy]-butyric acid] | 7.11
CCOc1cc(OCCCCCCc2cccc(OCCCC(=O)O)c2CCC(=O)O)cc(-c2ccc3scnc3c2)c1 [Example 56, 4-[3-{6-[3-Benzothiazol-5-yl-5-ethoxy-phenoxy]-hexyl}-2-(2-carboxy-ethyl)-phenoxy]-butyric acid] | 9.49
O=C(O)CCCOc1cccc(CCCCCCOc2cc(OCc3ccccc3)cc(-c3ccc4c(c3)OCO4)c2)c1CCC(=O)O [Example 60, 4-[3-[6-(3-Benzo[1,3]dioxol-5-yl-5-benzyloxy-phenoxy)-hexyl]-2-(2-carboxy-ethyl)-phenoxy]-butyric acid] | 8.34
CCOc1cc(OCCCCCCc2cccc(OCCCC(=O)O)c2CCC(=O)O)cc(-c2ccc(F)c(F)c2)c1 [Example 50, 4-[2-(2-Carboxy-ethyl)-3-[6-(3′,4′-difluoro-5-ethoxy-biphenyl-3-yloxy)-hexyl]-phenoxy]-butyric acid] | 8.08
CCOc1cc(OCCCCCCc2cccc(OCCCC(=O)O)c2CCC(=O)O)cc(-c2ccc3c(c2)OCO3)c1 [Example 43, 4-[3-[6-(3-Benzo[1,3]dioxol-5-yl-5-ethoxy-phenoxy)-hexyl]-2-(2-carboxy-ethyl)-phenoxy]-butyric acid] | 9.66
O=C(O)CCCOc1cccc(CCCCCCOc2cc(CO)cc(-c3ccc4c(c3)OCO4)c2)c1CCC(=O)O [Example 1, 4-[3-[6-(3-Benzo[1,3]dioxol-5-yl-5-hydroxymethyl-phenoxy)-hexyl]-2-(2-carboxy-ethyl)-phenoxy]-butyric acid] | 8.51
CCOc1cc(OCCCCCCc2cccc(OCCCC(=O)O)c2CCC(=O)O)cc(-c2ccc3c(c2)OC(F)(F)O3)c1 [Example 57, 4-(2-(2-Carboxy-ethyl)-3-{6-[3-(2,2-difluoro-benzo[1,3]dioxol-5-yl)-5-ethoxy-phenoxy]-hexyl}-phenoxy)-butyric acid] | 8.92
CN(C)Cc1cc(OCCCCCCc2cccc(OCCCC(=O)O)c2CCC(=O)O)cc(-c2ccc(C(F)(F)F)cc2)c1 [Example 37, 4-{2-(2-Carboxy-ethyl)-3-[6-(5-dimethylaminomethyl-4′-trifluoromethyl-biphenyl-3-yloxy)-hexyl]phenoxy}-butyric acid] | 9.43
CN(C)Cc1cc(OCCCCCCc2cccc(OCCCC(=O)O)c2CCC(=O)O)cc(-c2ccsc2)c1 [Example 31, 4-{2-(2-Carboxy-ethyl)-3-[6-(3-dimethylaminomethyl-5-thiophen-3-yl-phenoxy)-hexyl]-phenoxy}-butyric acid] | 9.96
